The values below come from US20250382303A1, “NOVEL COMPOUND AS NADPH OXIDASE 2 INHIBITOR AND PHARMACEUTICAL COMPOSITION CONTAINING SAME” (DONGGUK UNIVERSITY INDUSTRY-ACADEMIC COOPERATION FOUNDATION, priority 2022, published 2025).

The assay addresses T1, NOX2 (Homo sapiens, UniProt P04839).
T1 construct: Used for the NOX2 activity assay was human leukemia 60 cells (HL-60), which are widely, universally used to assess NOX2 activity; endogenous in cells
T1 sequence (P04839 2-570 limits assumed): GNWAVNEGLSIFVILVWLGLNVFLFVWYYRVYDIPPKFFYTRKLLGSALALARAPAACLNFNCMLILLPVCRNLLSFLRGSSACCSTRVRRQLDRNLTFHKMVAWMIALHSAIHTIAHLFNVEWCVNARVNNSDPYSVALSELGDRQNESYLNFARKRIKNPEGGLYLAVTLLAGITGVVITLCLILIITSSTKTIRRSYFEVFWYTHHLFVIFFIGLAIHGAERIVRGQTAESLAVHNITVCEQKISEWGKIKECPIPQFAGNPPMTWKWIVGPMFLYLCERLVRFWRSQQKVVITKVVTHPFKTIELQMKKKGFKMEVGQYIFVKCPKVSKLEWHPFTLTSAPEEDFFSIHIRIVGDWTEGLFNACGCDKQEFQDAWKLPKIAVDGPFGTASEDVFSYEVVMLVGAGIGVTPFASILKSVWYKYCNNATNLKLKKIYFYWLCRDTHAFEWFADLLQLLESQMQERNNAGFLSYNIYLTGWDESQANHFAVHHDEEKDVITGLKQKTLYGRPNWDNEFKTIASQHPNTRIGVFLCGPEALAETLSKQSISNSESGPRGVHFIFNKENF
T1 sequence (P13498 2-195 partner limits assumed): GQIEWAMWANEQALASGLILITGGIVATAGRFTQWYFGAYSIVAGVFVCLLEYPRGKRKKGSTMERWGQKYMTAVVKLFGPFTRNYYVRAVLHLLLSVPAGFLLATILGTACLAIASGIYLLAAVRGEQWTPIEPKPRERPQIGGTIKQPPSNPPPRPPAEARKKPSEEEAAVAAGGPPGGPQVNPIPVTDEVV
Put plainly: NOX2 activity assay: PMA-induced ROS in ATRA-differentiated HL-60 cells (WST-1 or Amplex Red/HRP probe). In kind it is cell-based. Conditions: for NOX2 inhibitory ability, verbal rating: WST-1, comment on Table 1; for IC50: WST-1 probe, differentiated HL-60, 200 ng/mL PMA, read-out: Inhibitory ability (NOX2). As for the experimental part:
NOX activity was evaluated by measuring the reactive oxygen species (ROS) produced by NOX. The probes that were used to measure ROS were water soluble tetrazolium-1 (WST-1, superoxide-specific colorimetric probe) and Amplex Red/horseradish peroxidase (AR/HRP, hydrogen peroxide-specific fluorometric probe), and the concentration of the probes used was […]. For WST-1, the change in the absorbance at 450 nm was measured, and, for AR, the change in fluorescence signals was measured at 560 nm and 585 nm, respectively for excitation wavelength (Ex) and emission wavelength (Em). The optical signal was measured using the SpectraMax M3 microplate reader from Molecular Devices at 37° C. for 60 minutes.
Used for the NOX2 activity assay was human leukemia 60 cells (HL-60), which are widely, universally used to assess NOX2 activity. 1×10^5 cells/mL of HL-60 were treated with […] all-trans-retinoic acid (ATRA) for 4 days to induce differentiation. Differentiated HL-60 (diff. HL-60) was centrifuged at 200 g for 5 minutes and washed twice with HBSS. Differentiation was induced to reach 3×10^4 cells/well on a 96-well plate (diff). HL-60 was seeded. The test material was treated to cells and left in a 37° C. incubator for 60 minutes. As a control group, the same concentration of DMSO, which is the vehicle of the test material, was used. 200 ng/mL phorbol 12-myristate 13-acetate (PMA) was used as the NOX2 activator, and the production amount of ROS induced by PMA was measured for 60 minutes. […] diphenyleneiodonium (DPI), which is well known to inhibit NOX, was used as a positive control group to evaluate whether the NOX2 activity tester properly operates.
A general note: Formazan colour is commonly taken as a measure of viable cells.

Take `COc1ccc2c(c1)C1CC(C)(O2)N(c2cccc(C(=O)N3CCc4ccccc4C3)c2)C(=O)N1` (stereo not shown) [Compound 25e, 8-Methoxy-2-methyl-3-(3-(1,2,3,4-tetrahydroisoquinoline-2-carbonyl)phenyl)-5,6-dihydro-2H-2,6-methanobenzo[g][1,3,5]oxadiazocin-4(3H)-one]: the “NOX2 inhibitory ability, verbal rating” value is “excellent inhibitory ability”.

Turning to `CC12CC(NC(=O)N1c1cccc(C(=O)N3CCc4c(F)cccc4C3)c1)c1cc(-c3ccoc3)ccc1O2` (stereo not shown) [Compound 28d, 3-(3-(5-Fluoro-1,2,3,4-tetrahydroisoquinoline-2-carbonyl)phenyl)-8-(furan-3-yl)-2-methyl-5,6-dihydro-2H-2,6-methanobenzo[g][1,3,5]oxadiazocin-4(3H)-one], the “NOX2 inhibitory ability, verbal rating” value is reported as “excellent inhibitory ability” and the IC50 is above 10 µM. Consider `CC12CC(NC(=O)N1c1cccc(C(=O)NCc3cccnc3)c1)c1ccccc1O2` (racemic) [Compound 8f, 3-(2-Methyl-4-oxo-5,6-dihydro-2H-2,6-methanobenzo[g][1,3,5]oxadiazocin-3(4H)-yl)-N-(pyridin-3-ylmethyl)benzamide], for which the IC50 was above 10 µM. Take `CC12CC(NC(=O)N1c1cccc(C(=O)N3CCc4ccccc4C3)c1)c1cccc(-c3ccoc3)c1O2` (stereo not shown) [Compound 26h, 10-(Furan-3-yl)-2-methyl-3-(3-(1,2,3,4-tetrahydroisoquinoline-2-carbonyl)phenyl)-5,6-dihydro-2H-2,6-methanobenzo[g][1,3,5]oxadiazocin-4(3H)-one]: the IC50 was 1 to 10 µM. On to `CC12CC(NC(=O)N1c1cccc(C(=O)N3CCc4ccc(C(F)(F)F)cc4C3)c1)c1cc(-c3ccoc3)ccc1O2` (stereo not shown) [Compound 28f, 8-(Furan-3-yl)-2-methyl-3-(3-(7-(trifluoromethyl)-1,2,3,4-tetrahydroisoquinoline-2-carbonyl)phenyl)-5,6-dihydro-2H-2,6-methanobenzo[g][1,3,5]oxadiazocin-4(3H)-one], for which the IC50 was above 10 µM. With `CC12CC(NC(=O)N1c1cccc(C(=O)N3CCc4ccccc4C3)c1)c1cc(N3CCOCC3)ccc1O2` (stereo not shown) [Compound 26f, 2-Methyl-8-morpholino-3-(3-(1,2,3,4-tetrahydroisoquinoline-2-carbonyl)phenyl)-5,6-dihydro-2H-2,6-methanobenzo[g][1,3,5]oxadiazocin-4(3H)-one], the IC50 was in the range of 1 to 10 µM. `CC12CC(NC(=O)N1c1cccc(C(=O)N3CCc4ccccc4C3(C)C)c1)c1cc(-c3ccoc3)ccc1O2` (stereo not shown) [Compound 28j, 3-(3-(1,1-Dimethyl-1,2,3,4-tetrahydroisoquinoline-2-carbonyl)phenyl)-8-(furan-3-yl)-2-methyl-5,6-dihydro-2H-2,6-methanobenzo[g][1,3,5]oxadiazocin-4(3H)-one]: the “NOX2 inhibitory ability, verbal rating” value was “excellent inhibitory ability” and the IC50 was above 10 µM. With `C[C@]12C[C@H](NC(=O)N1c1cccc(C(=O)N3CCc4ccccc4C3)c1)c1ccccc1O2` [Compound 10c, (2S,6S)-2-Methyl-3-(3-(1,2,3,4-tetrahydroisoquinoline-2-carbonyl)phenyl)-5,6-dihydro-2H-2,6-methanobenzo[g][1,3,5]oxadiazocin-4(3H)-one], the IC50 was in the range of 1 to 10 µM. Consider `CC12CC(NC(=O)N1c1cccc(C(=O)N3CCc4cccc(F)c4C3)c1)c1cc(-c3ccoc3)ccc1O2` (stereo not shown) [Compound 28c, 3-(3-(8-Fluoro-1,2,3,4-tetrahydroisoquinoline-2-carbonyl)phenyl)-8-(furan-3-yl)-2-methyl-5,6-dihydro-2H-2,6-methanobenzo[g][1,3,5]oxadiazocin-4(3H)-one], for which the “NOX2 inhibitory ability, verbal rating” value is listed as “excellent inhibitory ability” and the IC50 was above 10 µM.

As to `CC12CC(NC(=O)N1c1cccc(C(=O)N3CCc4cc(F)ccc4C3)c1)c1cc(Br)ccc1O2` (stereo not shown) [Compound 27b, 8-Bromo-3-(3-(6-fluoro-1,2,3,4-tetrahydroisoquinoline-2-carbonyl)phenyl)-2-methyl-5,6-dihydro-2H-2,6-methanobenzo[g][1,3,5]oxadiazocin-4(3H)-one], the IC50 is 1 to 10 µM. Regarding `CC12CC(NC(=O)N1c1cccc(C(=O)N3CCc4ccccc4C3)c1)c1ccc(Br)cc1O2` (stereo not shown) [Compound 25h, 9-Bromo-2-methyl-3-(3-(1,2,3,4-tetrahydroisoquinoline-2-carbonyl)phenyl)-5,6-dihydro-2H-2,6-methanobenzo[g][1,3,5]oxadiazocin-4(3H)-one], the IC50 lay in the range of 1 to 10 µM. Take `CC12CC(NC(=O)N1c1cccc(C(=O)N3CCc4c(cccc4C(F)(F)F)C3)c1)c1cc(Br)ccc1O2` (stereo not shown) [Compound 27e, 8-Bromo-2-methyl-3-(3-(5-(trifluoromethyl)-1,2,3,4-tetrahydroisoquinoline-2-carbonyl)phenyl)-5,6-dihydro-2H-2,6-methanobenzo[g][1,3,5]oxadiazocin-4(3H)-one]: the IC50 was 1 to 10 µM. The same measure, in the same setting: to `CC12CC(NC(=O)N1c1cccc(C(=O)N3CCc4ccccc4C3)c1)c1ccc(Cl)cc1O2` (stereo not shown) [Compound 25j, 9-Chloro-2-methyl-3-(3-(1,2,3,4-tetrahydroisoquinoline-2-carbonyl)phenyl)-5,6-dihydro-2H-2,6-methanobenzo[g][1,3,5]oxadiazocin-4(3H)-one] belongs 1 to 10 µM. With `CC12CC(NC(=O)N1c1cccc(C(=O)N3CCc4ccccc4C3)c1)c1cc(-c3ccco3)ccc1O2` (stereo not shown) [Compound 26d, 8-(furan-2-yl)-2-methyl-3-(3-(1,2,3,4-tetrahydroisoquinoline-2-carbonyl)phenyl)-5,6-dihydro-2H-2,6-methanobenzo[g][1,3,5]oxadiazocin-4(3H)-one], the “NOX2 inhibitory ability, verbal rating” value was “excellent inhibitory ability” and the IC50 is above 10 µM. For the compound `CC12CC(NC(=O)N1c1cccc(C(=O)N3CCc4ccccc4C3)c1)c1cc(-c3cccs3)ccc1O2` (stereo not shown) [Compound 26c, 2-Methyl-3-(3-(1,2,3,4-tetrahydroisoquinoline-2-carbonyl)phenyl)-8-(thiophen-2-yl)-5,6-dihydro-2H-2,6-methanobenzo[g][1,3,5]oxadiazocin-4(3H)-one], the “NOX2 inhibitory ability, verbal rating” value is “excellent inhibitory ability” and the IC50 is above 10 µM. `CC12CC(NC(=O)N1c1cccc(C(=O)N3CCc4cccc(F)c4C3)c1)c1cc(Br)ccc1O2` (stereo not shown) [Compound 27c, 8-Bromo-3-(3-(8-fluoro-1,2,3,4-tetrahydroisoquinoline-2-carbonyl)phenyl)-2-methyl-5,6-dihydro-2H-2,6-methanobenzo[g][1,3,5]oxadiazocin-4(3H)-one]: the IC50 was above 10 µM. On the same count and under the same terms, to `CC12CC(NC(=O)N1c1cccc(C(=O)NCc3ccc(C(F)(F)F)cc3)c1)c1ccccc1O2` (racemic) [Compound 8c, 3-(2-Methyl-4-oxo-5,6-dihydro-2H-2,6-methanobenzo[g][1,3,5]oxadiazocin-3(4H)-yl)-N-(4-(trifluoromethyl)benzyl)benzamide] belongs above 10 µM; to `CC12CC(NC(=O)N1c1cccc(C(=O)N3CCc4ccccc4C3)c1)c1ccc(F)cc1O2` (stereo not shown) [Compound 25k, 9-Fluoro-2-methyl-3-(3-(1,2,3,4-tetrahydroisoquinoline-2-carbonyl)phenyl)-5,6-dihydro-2H-2,6-methanobenzo[g][1,3,5]oxadiazocin-4(3H)-one], above 10 µM; to `CC12CC(NC(=O)N1c1cccc(C(=O)N3CCc4ccccc4C3)c1)c1ccc(-c3ccoc3)cc1O2` (stereo not shown) [Compound 26j, 9-(Furan-3-yl)-2-methyl-3-(3-(1,2,3,4-tetrahydroisoquinoline-2-carbonyl)phenyl)-5,6-dihydro-2H-2,6-methanobenzo[g][1,3,5]oxadiazocin-4(3H)-one], 1 to 10 µM. On the same count and under the same terms, to `CC12CC(NC(=O)N1c1cccc(C(=O)N3CCc4ccccc4C3)c1)c1cc(Cl)ccc1O2` (stereo not shown) [Compound 25c, 8-Chloro-2-methyl-3-(3-(1,2,3,4-tetrahydroisoquinoline-2-carbonyl)phenyl)-5,6-dihydro-2H-2,6-methanobenzo[g][1,3,5]oxadiazocin-4(3H)-one] belongs 1 to 10 µM.
